Measurements: PubChem BioAssay (NCI)
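Compound exposure: 48 hours, 5 concentrations, 96-well plates. Definition used: TGI = concentration required for complete inhibition of growth.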

Experiments:
Test in all cases: NCI anticancer screen, dose series, 48 h
[1] = test system: PC-3 prostate
[2] = test system: SK-OV-3 ovarian
[3] = test system: SF-539 CNS
[4] = test system: SW-620 colon
[5] = test system: HCC-2998 colon
[6] = test system: MOLT-4 leukemia
[7] = test system: ACHN renal
[8] = test system: MDA-MB-435
[9] = test system: HOP-92 NSCLC
[10] = test system: MDA-N
[11] = test system: HOP-62 NSCLC
[12] = test system: RXF 393 renal
[13] = test system: BT-549 breast
[14] = test system: UO-31 renal
[15] = test system: COLO 205 colon
[16] = test system: SR leukemia

Structure (SMILES) | TGI [1] [µM] | TGI [2] [µM] | TGI [3] [µM] | TGI [4] [µM] | TGI [5] [µM] | TGI [6] [µM] | TGI [7] [µM] | TGI [8] [µM] | TGI [9] [µM] | TGI [10] [µM] | TGI [11] [µM] | TGI [12] [µM] | TGI [13] [µM] | TGI [14] [µM] | TGI [15] [µM] | TGI [16] [µM]
O=Nc1c(O)cc(Nc2cccnc2)c2ccccc12 | > 100 | > 100 | > 100 | 45.5 | 95.4 | 41.6 | > 100 | > 100 | 68 | 76.6 | > 100 | > 100 | > 100 | > 100 | 42.5 | 
O=C(N/N=C/C=C/c1ccc([N+](=O)[O-])o1)c1ccc(C(=O)N/N=C/C=C/c2ccc([N+](=O)[O-])o2)cc1 | > 52.3 | > 100 | 22.3 | 98.5 | > 28.5 | > 43.6 | > 59.1 | > 73.8 | > 100 | > 84.8 | > 100 | 84 | > 100 | > 100 | > 100 | > 73.4
CSc1c(C#N)c(S)[nH]c(=O)c1C#N | > 100 | > 100 | > 100 | > 100 | > 100 | > 100 |  | > 100 |  | > 100 |  | > 100 | > 100 | 87.5 | > 100 | > 100
Clc1c2ccccc2nc2c1[nH]c1ccccc12 | > 100 |  | > 100 | > 100 | > 100 | 9.61 | > 100 | > 100 | > 100 | 16.9 | > 100 |  | > 100 | > 100 | 11.8 | 43.6
S=C(N1CCN(c2ccccc2)CC1)N1CCN(c2ccccc2)CC1 | > 100 | > 100 |  | > 100 | > 100 | > 100 | > 100 | > 100 |  | > 100 | > 100 | > 100 | > 100 | > 100 | > 100 | 
CC1C(c2ccccc2O)c2cc3c(cc2OC1N1CCOCC1)OCO3 (stereo unspecified) | > 100 | > 100 | 46.5 | > 100 | 64.3 | 83.7 | > 100 | 82.8 | 71.1 | > 100 | 35.8 | 48.9 | > 100 | > 100 | 46.6 | 29.5
COc1ccc(C(=O)/C=C/c2ccc(OCC(=N)N)cc2)cc1 | 27.9 | 25.5 | 29.6 | 14.7 | 30.4 | 30.9 | 31.9 | 36.8 | 28.5 | 31.4 | 29.9 | 28.3 | 31.7 | 34.1 | 28.6 | 25.9
O=C1NC(=S)NC(=O)C1=C/C=C/c1ccc([N+](=O)[O-])cc1 | 32.2 | 36 | 28.8 | 18.9 | 35.7 | 16.6 | 39 | 28.3 | 29.5 | 27.7 | 34.9 | 26.8 | 25 | 33.5 | 33.6 | 
COC1CC(O[C@H]2CC[C@@]3(C)[C@@H](CC[C@]4(O)[C@@H]3CC[C@]3(C)[C@@H](C(C)=O)[C@H](OC(=O)CC(C)C)[C@@H](OC(=O)c5ccccc5)[C@@]34O)C2)OC(C)C1OC1CC(OC)C(OC2OC(C)C(O)C(OC)C2O)C(C)O1 (stereo partly specified) | > 25 | > 25 | > 25 | > 25 | > 25 | 22.4 | > 25 | > 25 | 24.8 | > 25 | > 25 | > 25 | > 25 | > 25 | 12.4 | > 25
O=C(NCCCN1CCN(CCCNC(=O)Nc2cccc3ccccc23)CC1)Nc1cccc2ccccc12 | 21.5 |  | 34.3 | 22.9 | 4.58 |  | 30.1 | 31.4 | 29.5 | 30 | 23.9 | 27.6 | 27.1 | 31.2 | 31.5 | 
CCOC(=O)c1cc(C2CCN(Cc3ccccc3)C2=S)c(C(=O)C=[N+]=[N-])[nH]1 (stereo unspecified) | > 100 | > 100 |  | > 100 | > 100 | > 100 | > 100 | > 100 | > 100 | 49.4 | > 100 | 75.5 | 67.6 | 57.5 | > 100 | 
N/C(=N\S(=O)(=O)c1cc(Cl)c(Oc2ccc([N+](=O)[O-])cc2Cl)c(Cl)c1)Nc1ccc(Cl)cc1 | 30.5 | 39.8 | 34.4 | 45.9 |  | 34.2 | 30.5 | 33.6 | 32.3 | 34.8 |  | 31.8 | 32.3 | 34.1 | 30.5 | 43.3
Nc1nc(=S)n(-c2ccc(Cl)cc2)c2nc3ccccc3cc12 | > 100 | > 100 |  | > 100 | > 100 |  | > 100 | > 100 | 83.7 | > 100 | > 100 | > 100 | 67.1 | > 100 | > 100 | > 100
COc1cc2c[n+](C)c3c(c2cc1OC)Cc1cc2c(cc1-3)OCO2 | > 100 | > 100 | > 100 | > 100 |  | > 100 |  | > 100 | > 100 | > 100 | > 100 |  | > 100 | > 100 | > 100 | > 100
O=[N+]([O-])c1cccc(N=Nc2c(O)ccc3ccccc23)c1 | > 100 | > 100 |  | > 100 |  | > 100 |  | > 100 | > 100 | > 100 | > 100 | > 100 | > 100 | > 100 | > 100 | 
CC1CN=C(Nc2ccc(F)c(Cl)c2)S1 (stereo unspecified) | > 100 | > 100 | > 100 | > 100 | > 100 |  | > 100 | > 100 | > 100 | > 100 | > 100 | > 100 | > 100 | 91.8 | > 100 | > 100
Cc1cccc2c1c(=O)c1c(O)cc(O)cc1n2C | > 100 | > 100 | > 100 | > 100 | > 100 | > 100 | > 100 | > 100 | > 100 | > 100 | > 100 | > 100 | > 100 |  | > 100 | > 100
CCCNC(=O)N1CC(CN2CCN(c3ccccc3)CC2)O/C1=N/C(=O)Nc1ccccc1 (stereo unspecified) | > 100 | > 100 |  | > 100 | > 100 | > 100 | > 100 | > 100 | > 100 | > 100 | > 100 | > 100 | > 100 | > 100 | 74.1 | 
COC(=O)/C(C#N)=C(\N)c1c(C)c2ccccc2oc1=N | > 100 | > 100 | > 100 | > 100 |  | > 100 |  | > 100 | > 100 | > 100 | > 100 | > 100 | > 100 |  | > 100 | > 100
CN(CCCn1ccnc1[N+](=O)[O-])CCCn1ccnc1[N+](=O)[O-] | > 100 | > 100 | > 100 | > 100 |  | > 100 | > 100 | > 100 |  | > 100 | > 100 | > 100 | > 100 | > 100 | > 100 | > 100
O=C1c2ccccc2C(=O)N1CC(CN1C(=O)c2ccccc2C1=O)(C(=O)OCc1ccccc1)C(=O)OCc1ccccc1 | > 100 | > 100 |  |  | > 100 | > 100 |  | > 100 | > 100 | > 100 | > 100 | > 100 | > 100 | > 100 | > 100 | > 100
COc1cc(C2c3c(ccc4ccccc34)C(=O)C3CCC(=O)N32)cc(OC)c1O (stereo unspecified) | > 25 | > 25 | > 25 | > 25 |  | > 25 | > 25 | > 25 | > 25 | > 25 | > 25 | > 25 | > 25 | > 25 | > 25 | > 25
CCO/C(Cc1ccc(Cl)cc1)=N/NC(N)=S | > 100 | > 100 | > 100 | > 100 | > 100 | > 100 | > 100 | > 100 | > 100 | > 100 | > 100 |  | > 100 | > 100 | > 100 | > 100
CCCCOC(=O)c1cc(C(=CCC[C@H]2CC[C@@]3(C)[C@@H](CC[C@@H]4[C@@H]3CC[C@]3(C)[C@@H](C(C)CCCC(C)C)CC[C@@H]43)C2)c2cc(Cl)c(O)c(C(=O)OCCCC)c2)cc(Cl)c1O (stereo partly specified) | > 50 |  |  | > 50 | > 50 | > 5 |  | > 50 | > 50 | > 50 | > 50 |  | > 50 |  | > 50 | 
Cn1c(N=P(c2ccccc2)(c2ccccc2)c2ccccc2)c([N+](=O)[O-])c(=O)n(C)c1=O | > 100 | > 100 | > 100 | > 100 | > 100 | 66.8 | > 100 | > 100 | > 100 | > 100 | > 100 | > 100 | > 100 | > 100 | > 100 | 
c1ccc([P+](c2ccccc2)(c2ccccc2)C2c3ccccc3-c3ccccc32)cc1 | 5.46 | 4.33 | 6.98 | 16.2 | 9.62 | 7.12 | 7.79 | 3.18 |  | 7.84 | 4.7 | 5.06 | 7.44 | 8.03 | 2.63 | 
COC1C(O)C(C)OC(OC2CCC3(C)C(CCC4C3C(O)CC3(C)C(C5=CC(=O)OC5)CCC43O)C2)C1O (stereo unspecified) | 5.17 | 0.905 | 0.22 | 4.9 | 4.91 | 0.174 | 0.684 | 1.24 | 3.33 | 0.905 | 0.473 | 0.237 | 0.429 |  | 1.57 | > 100
COC1=CC(=O)C2=C(C[C@@]3(C)C(=C2)C(CO)=CC[C@H]3O)C1=O | 69.1 | > 100 | 34.7 | 60.6 | 83.1 | 2.49 | 33.1 | 41.2 | 24.5 | 37.4 | 49.6 | 30.9 | 34 | 39.5 | 65.9 | 
C/C(Cc1ccc2c(c1)OCO2)=N\NC(=O)C(C)Sc1nnc(SC(C)C(=O)N/N=C(\C)Cc2ccc3c(c2)OCO3)s1 (stereo unspecified) | > 100 | > 100 |  | > 100 | > 100 | > 100 | > 100 | > 100 | > 100 | > 100 | > 100 | > 100 | > 100 | > 100 | > 100 | 
Cc1c(F)c(NC(=O)CN(C)C)c2c(=O)cc(-c3ccc(NC(=O)CN(C)C)c(F)c3)oc2c1F | 33.8 | 30.5 | 31.2 | 46.9 | 19 | 31.9 | 29.6 | 26.5 |  | 34 | 32.5 | 25.6 | 35.3 | 26.9 | 38 | 6.15
